Series [1] addresses T1, human calcitonin receptor (hCTR2) (Homo sapiens, UniProt P30988).
T1 construct: expressed in transfected cells
T1 sequence (P30988 25-474): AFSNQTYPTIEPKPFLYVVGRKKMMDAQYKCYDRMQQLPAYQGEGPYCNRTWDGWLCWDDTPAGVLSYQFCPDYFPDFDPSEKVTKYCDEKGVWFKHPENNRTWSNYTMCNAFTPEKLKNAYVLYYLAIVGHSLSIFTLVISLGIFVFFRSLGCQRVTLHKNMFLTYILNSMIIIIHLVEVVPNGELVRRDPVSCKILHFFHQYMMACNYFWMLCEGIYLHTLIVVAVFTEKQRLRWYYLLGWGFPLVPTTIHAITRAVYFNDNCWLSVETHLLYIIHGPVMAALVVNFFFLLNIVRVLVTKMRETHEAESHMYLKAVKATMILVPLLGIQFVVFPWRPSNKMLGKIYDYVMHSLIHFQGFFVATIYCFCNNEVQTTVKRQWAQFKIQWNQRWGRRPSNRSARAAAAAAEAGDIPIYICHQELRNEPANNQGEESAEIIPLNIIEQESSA
Kind of series: hCTR2 assay: induction of cAMP (AlphaScreen cAMP Assay kit) in COS7 cells expressing hCTR2. It is filed as cell-based. The method, boiled down: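 Stable hCTR2 clone in RAMP-naive COS7 cells; peptides titrated in Tyrode buffer (pH 7.4) with 100 µM IBMX, 0.1% casein, 15 min at 37° C. cAMP read by AlphaScreen after lysis; EC50 and efficacy relative to pramlintide from 4PL fit.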
For orientation: Bead proximity is the source of the signal in Alpha formats.

Series [2] has as its target T2, human amylin receptor 3 (hAMYR3) consisting of hCTR2 co-expressed with human Receptor Activity Modifying Protein 3 (hRAMP3) (Homo sapiens, UniProt O60896+P30988).
T2 construct: expressed in transfected cells
T2 sequence (P30988 25-474): T1 sequence (P30988 25-474)
T2 sequence (O60896 24-148 partner): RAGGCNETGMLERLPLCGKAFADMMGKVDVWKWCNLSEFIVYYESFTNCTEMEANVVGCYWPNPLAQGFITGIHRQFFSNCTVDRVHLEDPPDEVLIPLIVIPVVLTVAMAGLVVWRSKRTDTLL
Kind of series: hAMYR3 assay: induction of cAMP (AlphaScreen cAMP Assay kit) in COS7 cells expressing hAMYR3. Type of series: cell-based. The method, boiled down:
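Stable COS7 clone co-expressing hCTR2 and hRAMP3, stimulated 15 min at 37° C with increasing peptide in Tyrode buffer pH 7.4 with 100 µM IBMX and 0.1% casein. cAMP measured by AlphaScreen after lysis; EC50 and % efficacy versus pramlintide from 4PL fit.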

A short description of series [3]: Solubility assessment (turbidity absorbance at 325 nm). It is filed as physicochemical. The following applies: stock 2 mg/ml diluted 1:1, ambient temperature (typically 25°C), n=1; for Solubility, Acetate buffer pH 4: 100 mM acetate buffer pH 4.0; for Solubility, Acetate buffer pH 5: 100 mM acetate buffer pH 5.0; for Solubility, Histidine buffer pH 6: 100 mM histidine buffer pH 6.0; for Solubility, Histidine buffer pH 7: 100 mM histidine buffer pH 7.0; for Solubility, Phosphate buffer pH 6: 100 mM phosphate buffer pH 6.0; for Solubility, Phosphate buffer pH 7: 100 mM phosphate buffer pH 7.0; for Solubility, Phosphate buffer pH 7.5: 100 mM phosphate buffer pH7.5. The method, boiled down: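 Stock 2 mg/ml peptide, H2O/HCl pH 2.5; 1:1 into 100 mM buffers: acetate pH 4.0/5.0, His pH 6.0/7.0, phosphate pH 6.0/7.0/7.5. A280 + A325, ~25°C, n=1. Soluble ≥ 1 mg/ml if A325 ≤ 0.02.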

Setting [4] is: cAMP induction in COS7 cells expressing hCTR2, average of a minimum of 3 determinations, read-out: hCTR2 EC50.

Read-outs that look alike come from different tables or passages of the source. Numbered stars: 1 amine (or outer) side, 2 acyl side, 3 side chain; on linkers, the order of the positions; unused ones are H or OH. Bridge positions count the residues as written; N and C are the ends. Square brackets hold non-standard residues; d marks the D form. Peptide text beside a SMILES is read from it. * marks the point of attachment. C20 diacid = O=C(O)CCCCCCCCCCCCCCCCCCC(=O)*; Pro(4R-NH2) = N[C@H]1CN[C@H](C(=O)O)C1; γGlu = O=C(O)[C@H](CCC(=O)[*:2])N[*:1]; NMeI = CC[C@H](C)[C@H](NC)C(=O)O; Sar = CNCC(=O)O

For `CC[C@H](C)[C@@H](C(=O)N[C@@H](CC(C)C)C(=O)N[C@@H](CO)C(=O)N[C@@H](CO)C(=O)N[C@H](C(=O)N[C@@H](CC(N)=O)C(=O)N[C@H](C(=O)NCC(=O)N[C@@H](CO)C(=O)N[C@@H](CC(N)=O)C(=O)N[C@H](C(=O)N1C[C@H](N)C[C@H]1C(N)=O)[C@@H](C)O)C(C)C)[C@@H](C)O)N(C)C(=O)[C@H](C)NC(=O)CN(C)C(=O)[C@H](Cc1ccccc1)NC(=O)[C@H](CC(N)=O)NC(=O)[C@H](CC(N)=O)NC(=O)[C@H](CO)NC(=O)[C@H](CO)NC(=O)[C@H](CCCNC(=N)N)NC(=O)[C@H](Cc1c[nH]cn1)NC(=O)[C@H](CC(C)C)NC(=O)[C@H](Cc1ccccc1)NC(=O)[C@H](CCC(=O)O)NC(=O)[C@H](C)NC(=O)[C@H](CC(C)C)NC(=O)[C@H](CCCNC(=N)N)NC(=O)[C@H](CCC(N)=O)NC(=O)[C@@H](NC(=O)[C@H](C)NC(=O)[C@@H]1CSSC[C@H](NC(=O)[C@H](CCCNC(=N)N)NC(=O)CC[C@H](NC(=O)CCCCCCCCCCCCCCCCCCC(=O)O)C(=O)O)C(=O)N[C@@H](CC(N)=O)C(=O)N[C@@H]([C@@H](C)O)C(=O)N[C@@H](C)C(=O)N[C@@H]([C@@H](C)O)C(=O)N1)[C@@H](C)O` [Compound 110, [19CD]-isoGlu-RC()NTATC()ATQRLAEFLHRSSNNF-Gly(Me)-A-Ile(Me)-LSSTNVGSNT-Apr-NH2] ({C20 diacid-γGlu}-RCNTATCATQRLAEFLHRSSNNF[Sar]A[NMeI]LSSTNVGSNT[Pro(4R-NH2)]-NH2; disulfide 2-7), the EC50 (usually the midpoint of the concentration-response curve) in series [1] is 0.16 nM. Also, the EC50 in series [2] is 0.087 nM. Moreover, in series [3], the “Solubility, Acetate buffer pH 4” value is on record as “SS (SS indicates solubility ≥ 1mg/ml)”; the “Solubility, Acetate buffer pH 5” value is listed as “SS (SS indicates solubility ≥ 1mg/ml)”; the “Solubility, Histidine buffer pH 6” value is on record as “SS (SS indicates solubility ≥ 1mg/ml)”; the “Solubility, Histidine buffer pH 7” value is reported as “SS (SS indicates solubility ≥ 1mg/ml)”. For the same compound, in series [3], the “Solubility, Phosphate buffer pH 6” value is listed as “II (II indicates solubility ≤ 1 mg/ml)”; the “Solubility, Phosphate buffer pH 7” value is “SS (SS indicates solubility ≥ 1mg/ml)”; the “Solubility, Phosphate buffer pH 7.5” value is on record as “SS (SS indicates solubility ≥ 1mg/ml)”.
As for `CC[C@H](C)[C@@H](C(=O)N[C@@H](CC(C)C)C(=O)N[C@@H](CO)C(=O)N[C@@H](CO)C(=O)N[C@H](C(=O)N[C@@H](CCC(=O)O)C(=O)N[C@H](C(=O)NCC(=O)N[C@@H](CO)C(=O)N[C@@H](CCC(=O)O)C(=O)N[C@H](C(=O)N1CCC[C@H]1C(N)=O)[C@@H](C)O)C(C)C)[C@@H](C)O)N(C)C(=O)[C@H](C)NC(=O)CN(C)C(=O)[C@H](Cc1ccccc1)NC(=O)[C@H](CO)NC(=O)[C@H](CO)NC(=O)[C@H](CO)NC(=O)[C@H](CO)NC(=O)[C@H](CCCNC(=N)N)NC(=O)[C@H](Cc1c[nH]cn1)NC(=O)[C@H](CC(C)C)NC(=O)[C@H](Cc1ccccc1)NC(=O)[C@H](CCC(=O)O)NC(=O)[C@H](C)NC(=O)[C@H](CC(C)C)NC(=O)[C@H](CCCNC(=N)N)NC(=O)[C@H](CC(=O)O)NC(=O)[C@@H](NC(=O)[C@H](C)NC(=O)[C@@H]1CSSC[C@H](NC(=O)[C@H](CCCNC(=N)N)NC(=O)CC[C@H](NC(=O)CCCCCCCCCCCCCCCCCCC(=O)O)C(=O)O)C(=O)N[C@@H](CC(N)=O)C(=O)N[C@@H]([C@@H](C)O)C(=O)N[C@@H](C)C(=O)N[C@@H]([C@@H](C)O)C(=O)N1)[C@@H](C)O` [Compound 120, [19CD]-isoGlu-RC()NTATC()ATDRLAEFLHRSSSSF-Gly(Me)-A-Ile(Me)-LSSTEVGSETP-NH2] ({C20 diacid-γGlu}-RCNTATCATDRLAEFLHRSSSSF[Sar]A[NMeI]LSSTEVGSETP-NH2; disulfide 2-7), the EC50 in series [1] (setting [4]) is 0.043 nM. The compound further came in with an EC50 in series [2] of 0.15 nM. Further, in series [3], the “Solubility, Acetate buffer pH 4” value was “SS (SS indicates solubility ≥ 1mg/ml)”; the “Solubility, Acetate buffer pH 5” value is reported as “SS (SS indicates solubility ≥ 1mg/ml)”; the “Solubility, Histidine buffer pH 6” value is on record as “SS (SS indicates solubility ≥ 1mg/ml)”; the “Solubility, Histidine buffer pH 7” value was “SS (SS indicates solubility ≥ 1mg/ml)”. In series [3], the “Solubility, Phosphate buffer pH 6” value is listed as “SS (SS indicates solubility ≥ 1mg/ml)”; the “Solubility, Phosphate buffer pH 7” value is on record as “SS (SS indicates solubility ≥ 1mg/ml)”; the “Solubility, Phosphate buffer pH 7.5” value is “SS (SS indicates solubility ≥ 1mg/ml)”.
As for `CC[C@H](C)[C@@H](C(=O)N[C@@H](CC(C)C)C(=O)N[C@@H](CO)C(=O)N[C@@H](CO)C(=O)N[C@H](C(=O)N[C@@H](CCC(=O)O)C(=O)N[C@H](C(=O)NCC(=O)N[C@@H](CO)C(=O)N[C@@H](CCC(=O)O)C(=O)N[C@H](C(=O)N1CCC[C@H]1C(N)=O)[C@@H](C)O)C(C)C)[C@@H](C)O)N(C)C(=O)[C@H](C)NC(=O)CN(C)C(=O)[C@H](Cc1ccccc1)NC(=O)[C@H](CO)NC(=O)[C@H](CO)NC(=O)[C@H](CO)NC(=O)[C@H](CO)NC(=O)[C@H](CCCNC(=N)N)NC(=O)[C@H](Cc1c[nH]cn1)NC(=O)[C@H](CC(C)C)NC(=O)[C@H](Cc1ccccc1)NC(=O)[C@H](CCC(=O)O)NC(=O)[C@H](C)NC(=O)[C@H](CC(C)C)NC(=O)[C@H](CCCNC(=N)N)NC(=O)[C@H](CCC(=O)O)NC(=O)[C@@H](NC(=O)[C@H](C)NC(=O)[C@@H]1CSSC[C@H](NC(=O)[C@H](CCCNC(=N)N)NC(=O)CC[C@H](NC(=O)CCCCCCCCCCCCCCCCCCC(=O)O)C(=O)O)C(=O)N[C@@H](CCC(=O)O)C(=O)N[C@@H]([C@@H](C)O)C(=O)N[C@@H](C)C(=O)N[C@@H]([C@@H](C)O)C(=O)N1)[C@@H](C)O` [Compound 134, [19CD]-isoGlu-RC()ETATC()ATERLAEFLHRSSSSF-Gly(Me)-A-Ile(Me)-LSSTEVGSETP-NH2] ({C20 diacid-γGlu}-RCETATCATERLAEFLHRSSSSF[Sar]A[NMeI]LSSTEVGSETP-NH2; disulfide 2-7), the EC50 in series [1] (setting [4]) is 0.22 nM. Besides, in series [2] (cAMP induction in COS7 cells expressing hAMYR3, average of a minimum of 3 determinations, read-out: hAMY R3 EC50), the EC50 is 0.65 nM. In addition, in series [3], the “Solubility, Acetate buffer pH 4” value is listed as “SS (SS indicates solubility ≥ 1mg/ml)”; the “Solubility, Acetate buffer pH 5” value was “SS (SS indicates solubility ≥ 1mg/ml)”; the “Solubility, Histidine buffer pH 6” value is listed as “SS (SS indicates solubility ≥ 1mg/ml)”; the “Solubility, Histidine buffer pH 7” value is “SS (SS indicates solubility ≥ 1mg/ml)”. For the same compound, in series [3], the “Solubility, Phosphate buffer pH 6” value is given as “SS (SS indicates solubility ≥ 1mg/ml)”; the “Solubility, Phosphate buffer pH 7” value is “SS (SS indicates solubility ≥ 1mg/ml)”; the “Solubility, Phosphate buffer pH 7.5” value is given as “SS (SS indicates solubility ≥ 1mg/ml)”.

These data come from EP3046573B1, “AMYLIN ANALOGUES” (Zealand Pharma A/S, priority 2013, dated 2015).
